Results: US6706663B2, “Herbicidal 3-heterocyclic substituted benzisothiazole and benzisoxazole compounds” (Wyeth, priority 2000, dated 2004)

Experiments:
[1] = test system: GLXMAW (Soybean, Williams); test: Postemergence herbicidal evaluation; assay type: in vivo, Glycine max, (L.) Merr. cv Williams
Outline: (§1)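 Visual 0–9 injury scores versus control plants, covering stand, vigour, malformation, size, chlorosis and general appearance, taken four to five weeks post-spray and averaged over replicate tests. Plants were sprayed at roughly two weeks old and held on greenhouse benches.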

[2] = test system: ECHCG (Echinochloa crus-galli); test: Postemergence herbicidal evaluation; assay type: in vivo, (L.) Beau
Outline: as §1

ZEAMX (Corn, Field) = test: Postemergence herbicidal evaluation; assay type: in vivo, Zea mays, L.
Outline: as §1

[3] = test system: IPOHE (Ipomoea hederacea); test: Postemergence herbicidal evaluation; assay type: in vivo, (L.) Jacq.
Outline: as §1

ORYSAT (Rice, Tebonnet) [4] = test: Preemergence herbicidal evaluation; assay type: in vivo, Oryza sativa, (L.) Tebonnet; details: preemergence, rated 4-5 weeks after treatment
GALAP (Galium aparine) = test: Postemergence herbicidal evaluation; assay type: in vivo
Outline: as §1

CYPIR (Cyperus iria) = test: Flooded paddy, preemergence weed control; assay type: in vivo; details: rated 3-4 weeks after treatment, 0-9 rating scale
Outline: (§2)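 Greenhouse paddy test, preemergence. Seeds planted in the top 0.5 cm of silt loam soil, which remained flooded at 1.5–3 cm depth. Scored 0-9 by visual comparison with control.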

[5] = test system: ECHCG (Echinochloa crus-galli); test: Preemergence herbicidal evaluation; assay type: in vivo, (L.) Beau; details: preemergence, rated 4-5 weeks after treatment
Outline: (§3)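 Steps: mix seeds with potting soil; plant on ~1 inch soil per cup; spray compound in aqueous acetone; hold on greenhouse benches with routine watering; rate 0–9 visually against control at 4–5 weeks.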

SETVI (Setaria viridis) [6] = test: Preemergence herbicidal evaluation; assay type: in vivo, (L.) Beau; details: preemergence, rated 4-5 weeks after treatment
Outline: as §3

[7] = test system: MOOVA (Monochoria vaginalis); test: Flooded paddy, preemergence weed control; assay type: in vivo, Presl.; details: rated 3-4 weeks after treatment, 0-9 rating scale
Outline: as §2

[8] = test system: ECHORC (Echinochloa oryzoides); test: Flooded paddy, preemergence weed control; assay type: in vivo, Echinochloa oryzoides (Ard.) Fritsch.; details: rated 3-4 weeks after treatment, 0-9 rating scale
Outline: as §2

ORYSAT (Rice, Tebonnet) [9] = test: Flooded paddy, post-transplant rice tolerance; assay type: in vivo, Oryza sativa, (L.) Tebonnet; details: flooded paddy, post-transplant rice, rated 3-4 weeks after treatment, 0-9 rating scale
Outline: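 Steps: transplant two ten-day-old seedlings into silt loam; flood to 1.5-3 cm above soil; apply herbicide post-transplant; maintain water on greenhouse benches; rate stand, vigor, malformation, size and chlorosis on a 0-9 visual scale versus control.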

[10] = test system: ABUTH (Abutilon theophrasti); test: Postemergence herbicidal evaluation; assay type: in vivo, Medic.
Outline: as §1

[11] = test system: SAGPY (Sagittaria pygmaea); test: Flooded paddy, preemergence weed control; assay type: in vivo, L.; details: rated 3-4 weeks after treatment, 0-9 rating scale
Outline: as §2

[12] = test system: AMBEL (Ambrosia artemisifolia); test: Preemergence herbicidal evaluation; assay type: in vivo, L.; details: preemergence, rated 4-5 weeks after treatment
Outline: as §3

[13] = test system: CHEAL (Chenopodium album); test: Preemergence herbicidal evaluation; assay type: in vivo, L.; details: preemergence, rated 4-5 weeks after treatment
Outline: as §3

[14] = test system: CASOB (Cassia obtusifolia); test: Preemergence herbicidal evaluation; assay type: in vivo, L.; details: preemergence, rated 4-5 weeks after treatment
Outline: as §3

[15] = test system: IPOHE (Ipomoea hederacea); test: Preemergence herbicidal evaluation; assay type: in vivo, (L.) Jacq.; details: preemergence, rated 4-5 weeks after treatment
SETVI (Setaria viridis) [16] = test: Postemergence herbicidal evaluation; assay type: in vivo, (L.) Beau
Outline: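 Ratings use a 0-9 visual scale covering stand, vigor, malformation, size, chlorosis and appearance versus a control, scored 4-5 weeks post-spray. Roughly two-week-old seedlings received about 0.0040-1.000 kg/ha active, applied in 50/50 acetone/water with 0.5% TWEEN 20. Multiple tests per compound were averaged.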

ORYSAT (Rice, Tebonnet) [17] = test: Postemergence herbicidal evaluation; assay type: in vivo, Oryza sativa, (L.) Tebonnet
Outline: as §1

Cc1ccc(-c2nsc3ccc(-n4c(=O)cc(C(F)(F)F)n(C)c4=O)cc23)s1 [Compound 21, 1-methyl-3-[3-(5-methyl-2-thienyl)-1,2-benzisothiazol-5-yl]-6-(trifluoromethyl)uracil] was tested, and the “Postemergence herbicidal rating, GLXMAW” value ([1]; rate 0.0320 kg/ha) was 5.5, the “Postemergence herbicidal rating, GLXMAW” value ([1]; rate 0.0620 kg/ha) was 6.0 and the “Postemergence herbicidal rating, GLXMAW” value ([1]; rate 0.1250 kg/ha) was 6.0. The “Postemergence herbicidal rating, ECHCG” value ([2]; rate 0.0320 kg/ha) was 4.0, the “Postemergence herbicidal rating, ECHCG” value ([2]; rate 0.0620 kg/ha) was 4.0 and the “Postemergence herbicidal rating, ECHCG” value ([2]; rate 0.1250 kg/ha) was 4.0. For the same molecule, the “Postemergence herbicidal rating, ZEAMX” value (ZEAMX (Corn, Field); rate 0.0320 kg/ha) was 5.0, the “Postemergence herbicidal rating, ZEAMX” value (ZEAMX (Corn, Field); rate 0.0620 kg/ha) was 5.5 and the “Postemergence herbicidal rating, ZEAMX” value (ZEAMX (Corn, Field); rate 0.1250 kg/ha) was 5.5. For the same molecule, the “Postemergence herbicidal rating, IPOHE” value ([3]; rate 0.0320 kg/ha) was 9.0, the “Postemergence herbicidal rating, IPOHE” value ([3]; rate 0.0620 kg/ha) was 9.0 and the “Postemergence herbicidal rating, IPOHE” value ([3]; rate 0.1250 kg/ha) was 9.0. For the same molecule, the “ORYSAT preemergence herbicidal rating” value (ORYSAT (Rice, Tebonnet) [4]; Rate 0.0620 kg/ha) was 0.0, the “ORYSAT preemergence herbicidal rating” value (ORYSAT (Rice, Tebonnet) [4]; Rate 0.1250 kg/ha) was 0.5 and the “ORYSAT preemergence herbicidal rating” value (ORYSAT (Rice, Tebonnet) [4]; Rate 0.2500 kg/ha) was 3.5. The “Postemergence herbicidal rating, GALAP” value (GALAP (Galium aparine); rate 0.0320 kg/ha) was 1.0, the “Postemergence herbicidal rating, GALAP” value (GALAP (Galium aparine); rate 0.0620 kg/ha) was 4.0 and the “Postemergence herbicidal rating, GALAP” value (GALAP (Galium aparine); rate 0.1250 kg/ha) was 9.0. The “herbicidal rating, CYPIR” value (CYPIR (Cyperus iria); rate 0.0080 kg/ha) was 4.0, the “herbicidal rating, CYPIR” value (CYPIR (Cyperus iria); rate 0.0320 kg/ha) was 9.0 and the “herbicidal rating, CYPIR” value (CYPIR (Cyperus iria); rate 0.1250 kg/ha) was 9.0. For the same molecule, the “ECHCG preemergence herbicidal rating” value ([5]; Rate 0.0620 kg/ha) was 0.0, the “ECHCG preemergence herbicidal rating” value ([5]; Rate 0.1250 kg/ha) was 5.0 and the “ECHCG preemergence herbicidal rating” value ([5]; Rate 0.2500 kg/ha) was 6.5. For the same molecule, the “SETVI preemergence herbicidal rating” value (SETVI (Setaria viridis) [6]; Rate 0.0620 kg/ha) was 6.5, the “SETVI preemergence herbicidal rating” value (SETVI (Setaria viridis) [6]; Rate 0.1250 kg/ha) was 9.0 and the “SETVI preemergence herbicidal rating” value (SETVI (Setaria viridis) [6]; Rate 0.2500 kg/ha) was 9.0. For the same molecule, the “herbicidal rating, MOOVA” value ([7]; rate 0.0080 kg/ha) was 7.0, the “herbicidal rating, MOOVA” value ([7]; rate 0.0320 kg/ha) was 9.0 and the “herbicidal rating, MOOVA” value ([7]; rate 0.1250 kg/ha) was 9.0. The “herbicidal rating, ECHORC” value ([8]; rate 0.0080 kg/ha) was 4.0, the “herbicidal rating, ECHORC” value ([8]; rate 0.0320 kg/ha) was 8.5 and the “herbicidal rating, ECHORC” value ([8]; rate 0.1250 kg/ha) was 9.0. The “herbicidal rating, ORYSAT (rice tolerance)” value (ORYSAT (Rice, Tebonnet) [9]; rate 0.0080 kg/ha) was 0.0, the “herbicidal rating, ORYSAT (rice tolerance)” value (ORYSAT (Rice, Tebonnet) [9]; rate 0.0320 kg/ha) was 2.0 and the “herbicidal rating, ORYSAT (rice tolerance)” value (ORYSAT (Rice, Tebonnet) [9]; rate 0.1250 kg/ha) was 3.0. The “Postemergence herbicidal rating, ABUTH” value ([10]; rate 0.0320 kg/ha) was 9.0, the “Postemergence herbicidal rating, ABUTH” value ([10]; rate 0.0620 kg/ha) was 9.0 and the “Postemergence herbicidal rating, ABUTH” value ([10]; rate 0.1250 kg/ha) was 9.0. The “herbicidal rating, SAGPY” value ([11]; rate 0.0080 kg/ha) was 0.0, the “herbicidal rating, SAGPY” value ([11]; rate 0.0320 kg/ha) was 0.0 and the “herbicidal rating, SAGPY” value ([11]; rate 0.1250 kg/ha) was 6.0. The “AMBEL preemergence herbicidal rating” value ([12]; Rate 0.0620 kg/ha) was 2.0, the “AMBEL preemergence herbicidal rating” value ([12]; Rate 0.1250 kg/ha) was 5.5 and the “AMBEL preemergence herbicidal rating” value ([12]; Rate 0.2500 kg/ha) was 7.5. The “CHEAL preemergence herbicidal rating” value ([13]; Rate 0.0620 kg/ha) was 9.0, the “CHEAL preemergence herbicidal rating” value ([13]; Rate 0.1250 kg/ha) was 9.0 and the “CHEAL preemergence herbicidal rating” value ([13]; Rate 0.2500 kg/ha) was 9.0. For the same molecule, the “CASOB preemergence herbicidal rating” value ([14]; Rate 0.0620 kg/ha) was 0.0, the “CASOB preemergence herbicidal rating” value ([14]; Rate 0.1250 kg/ha) was 0.5 and the “CASOB preemergence herbicidal rating” value ([14]; Rate 0.2500 kg/ha) was 2.0. For the same molecule, the “IPOHE preemergence herbicidal rating” value ([15]; Rate 0.0620 kg/ha) was 0.0, the “IPOHE preemergence herbicidal rating” value ([15]; Rate 0.1250 kg/ha) was 2.0 and the “IPOHE preemergence herbicidal rating” value ([15]; Rate 0.2500 kg/ha) was 5.0. The “Postemergence herbicidal rating, SETVI” value (SETVI (Setaria viridis) [16]; rate 0.0320 kg/ha) was 2.0, the “Postemergence herbicidal rating, SETVI” value (SETVI (Setaria viridis) [16]; rate 0.0620 kg/ha) was 7.0 and the “Postemergence herbicidal rating, SETVI” value (SETVI (Setaria viridis) [16]; rate 0.1250 kg/ha) was 9.0. The “Postemergence herbicidal rating, ORYSAT” value (ORYSAT (Rice, Tebonnet) [17]; rate 0.0320 kg/ha) was 4.0, the “Postemergence herbicidal rating, ORYSAT” value (ORYSAT (Rice, Tebonnet) [17]; rate 0.0620 kg/ha) was 3.5 and the “Postemergence herbicidal rating, ORYSAT” value (ORYSAT (Rice, Tebonnet) [17]; rate 0.1250 kg/ha) was 4.5.
